# Test results from ChEMBL document CHEMBL5154930, “Design, Synthesis, and Biological Evaluations of DOT1L Peptide Mimetics Targeting the Protein-Protein Interactions between DOT1L and MLL-AF9/MLL-ENL” (J Med Chem, 2022).
# Calls of active or inactive are those of the source. The rule behind the calls is not given here. Non-standard residues stand in square brackets, D forms with d. Residues, ends and D or L forms follow the SMILES beside them. *: point of attachment. X1 = C[C@H](N*)c1nc2cccc(-c3ccccc3)c2[nH]1; Ala(cPent) = N[C@@H](CC1CCCC1)C(=O)O; Pentanoyl(4-Me) = CC(C)CCC(=O)*; Dap(Me) = CNC[C@H](N)C(=O)O
# Legend:
# MOLM-13 [1] = assay: Down regulation of AC011043.1 gene in human MOLM-13 cells by RNA-sequencing analysis; format: functional, cell-based
# MOLM-13 [2] = assay: Induction of apoptosis in human MOLM-13 cells at 0.25 to 1 uM assessed as cleaved PARP by Annexin V-FITC/PI staining based flow cytometry analysis; format: functional, cell-based; conditions: dose 0.25-1 µM
# MOLM-13 [3] = assay: Down regulation of HOXA11 gene in human MOLM-13 cells by RNA-sequencing analysis; format: functional, cell-based
# MOLM-13 [4] = assay: Inhibition of methylation of H3K79 in human MOLM-13 cells assessed as inhibition of methylation at HOXA6 gene cluster by chromatin immunoprecipitation assay; format: functional, cell-based
# MOLM-13 [5] = assay: Inhibition of methylation of H3K79 in human MOLM-13 cells assessed as inhibition of methylation at MEIS1-AS3 gene cluster by chromatin immunoprecipitation assay; format: functional, cell-based
# [6] = target: T1, Protein AF-9 (Homo sapiens) (UniProt P42568); assay: Binding affinity to AF9 in human MOLM-13 cells assessed as thermal stabilization of protein at 60 degree Celsius at 1 uM for 12 hrs by CETSA; format: cell-based
# T1 sequence (whole entry): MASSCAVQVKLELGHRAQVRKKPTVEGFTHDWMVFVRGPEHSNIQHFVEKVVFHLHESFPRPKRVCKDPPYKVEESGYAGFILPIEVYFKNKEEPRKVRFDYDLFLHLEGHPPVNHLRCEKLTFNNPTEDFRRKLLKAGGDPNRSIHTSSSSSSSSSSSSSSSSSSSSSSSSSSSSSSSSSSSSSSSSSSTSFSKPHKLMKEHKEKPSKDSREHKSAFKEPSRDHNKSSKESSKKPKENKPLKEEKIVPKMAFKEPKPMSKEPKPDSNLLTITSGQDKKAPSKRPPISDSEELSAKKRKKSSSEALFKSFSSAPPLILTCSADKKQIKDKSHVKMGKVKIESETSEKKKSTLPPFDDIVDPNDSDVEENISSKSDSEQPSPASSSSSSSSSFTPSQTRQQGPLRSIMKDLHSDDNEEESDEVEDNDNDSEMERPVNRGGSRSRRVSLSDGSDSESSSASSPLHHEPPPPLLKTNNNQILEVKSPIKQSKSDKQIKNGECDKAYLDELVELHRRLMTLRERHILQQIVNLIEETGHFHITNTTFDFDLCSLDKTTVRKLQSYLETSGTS
# MOLM-13 [7] = assay: Down regulation of MCM2 gene in human MOLM-13 cells by RNA-sequencing analysis; format: functional, cell-based
# MOLM-13 [8] = assay: Down regulation of GBE1 gene in human MOLM-13 cells by RNA-sequencing analysis; format: functional, cell-based
# MOLM-13 [9] = assay: Down regulation of MEF2C gene in human MOLM-13 cells by RNA-sequencing analysis; format: functional, cell-based
# MOLM-13 [10] = assay: Inhibition of methylation of H3K79 in human MOLM-13 cells assessed as inhibition of methylation at HOXA1 gene cluster by chromatin immunoprecipitation assay; format: functional, cell-based
# MOLM-13 [11] = assay: Down regulation of PBX3 gene in human MOLM-13 cells by RNA-sequencing analysis; format: functional, cell-based
# MOLM-13 [12] = assay: Inhibition of methylation of H3K79 in human MOLM-13 cells assessed as inhibition of methylation at MEIS1 gene cluster by chromatin immunoprecipitation assay; format: functional, cell-based
# MOLM-13 [13] = assay: cells; conditions: Homo sapiens, MOLM-13, 144 h
# Description: Anticancer activity against human MOLM-13 cells harbouring MLL-AF9 assessed as inhibition of cell growth treated for 6 days measured by CCK-8 kit method
# MOLM-13 [14] = assay: Down regulation of ARID1B gene in human MOLM-13 cells by RNA-sequencing analysis; format: functional, cell-based
# MOLM-13 [15] = assay: Inhibition of methylation of H3K79 in human MOLM-13 cells assessed as inhibition of methylation at HOXA2 gene cluster by chromatin immunoprecipitation assay; format: functional, cell-based
# MOLM-13 [16] = assay: Down regulation of HOXA9 gene in human MOLM-13 cells by RNA-sequencing analysis; format: functional, cell-based
# MOLM-13 [17] = assay: Down regulation of SSBP2 gene in human MOLM-13 cells by RNA-sequencing analysis; format: functional, cell-based
# MOLM-13 [18] = assay: Inhibition of methylation of H3K79 in human MOLM-13 cells assessed as inhibition of methylation at HOXA7 gene cluster by chromatin immunoprecipitation assay; format: functional, cell-based
# MOLM-13 [19] = assay: Induction of apoptosis in human MOLM-13 cells at 0.25 to 1 uM by Annexin V-FITC/PI staining based flow cytometry analysis; format: functional, cell-based; conditions: dose 0.25-1 µM, time 5-9 day, TDE = time-dependent effect
# MOLM-13 [20] = assay: Down regulation of HOXA5 gene in human MOLM-13 cells by RNA-sequencing analysis; format: functional, cell-based
# K562 = assay: Anticancer activity against human K562 cells assessed as inhibition of cell growth treated for 8 days measured by CCK-8 kit method; format: functional, cell-based; conditions: K562, 192 h
# MOLM-13 [21] = assay: Down regulation of CDK1 gene in human MOLM-13 cells by RNA-sequencing analysis; format: functional, cell-based
# MOLM-13 [22] = assay: Inhibition of methylation of H3K79 in human MOLM-13 cells assessed as inhibition of methylation at HOXA3 gene cluster by chromatin immunoprecipitation assay; format: functional, cell-based
# MOLM-13 [23] = assay: Down regulation of ARID2 gene in human MOLM-13 cells by RNA-sequencing analysis; format: functional, cell-based
# MOLM-13 [24] = assay: Induction of apoptosis in human MOLM-13 cells treated for 7 days by Annexin V-FITC/PI staining based flow cytometry analysis; format: functional, cell-based; conditions: dose 0.25-1 µM, time 7.0 day
# MOLM-13 [25] = assay: Induction of apoptosis in human MOLM-13 cells at 0.25 to 1 uM assessed as cleaved Caspase-3 by Annexin V-FITC/PI staining based flow cytometry analysis; format: functional, cell-based; conditions: dose 0.25-1 µM
# MOLM-13 [26] = assay: Inhibition of methylation of H3K79 in human MOLM-13 cells assessed as inhibition of methylation at HOXA-AS2 gene cluster by chromatin immunoprecipitation assay; format: functional, cell-based
# MOLM-13 [27] = assay: cells; conditions: Homo sapiens, MOLM-13, 192 h
# Description: Anticancer activity against human MOLM-13 cells harbouring MLL-AF9 assessed as inhibition of cell growth treated for 8 days measured by CCK-8 kit method
# MOLM-13 [28] = assay: Down regulation of CDK6 gene in human MOLM-13 cells by RNA-sequencing analysis; format: functional, cell-based
# MOLM-13 [29] = assay: Down regulation of HOXA10 gene in human MOLM-13 cells by RNA-sequencing analysis; format: functional, cell-based
# MOLM-13 [30] = assay: Down regulation of TUBA1B gene in human MOLM-13 cells by RNA-sequencing analysis; format: functional, cell-based
# MOLM-13 [31] = assay: Down regulation of SKP2 gene in human MOLM-13 cells by RNA-sequencing analysis; format: functional, cell-based
# [32] = target: T1, Protein AF-9 (Homo sapiens); assay: Binding affinity to AF9 in human MOLM-13 cells assessed as thermal stabilization of protein at 55 degree Celsius for 12 hrs by CETSA; format: cell-based; conditions: dose <= 4.0 µM, DDE = dose-dependent effect
# MV4-11 = assay: Anticancer activity against human MV4-11 cells assessed as inhibition of cell growth treated for 8 days measured by CCK-8 kit method; format: functional, cell-based; conditions: MV4-11, 192 h
# MOLM-13 [33] = assay: Down regulation of DCUN1D1 gene in human MOLM-13 cells by RNA-sequencing analysis; format: functional, cell-based
# RS4-11 = assay: Anticancer activity against human RS4-11 cells assessed as inhibition of cell growth treated for 8 days measured by CCK-8 kit method; format: functional, cell-based; conditions: RS4-11, 192 h
# MOLM-13 [34] = assay: Down regulation of JMJD1C gene in human MOLM-13 cells by RNA-sequencing analysis; format: functional, cell-based
compound,measurement,setting,value
CNC[C@H](NC(=O)[C@@H](NC(=O)[C@@H]1CCCN1C(=O)CCC(C)C)C(C)C)C(=O)N[C@@H](CC1CCCC1)C(=O)N[C@@H](C)c1nc2cccc(-c3ccccc3)c2[nH]1 ({Pentanoyl(4-Me)}-PV[Dap(Me)][Ala(cPent)]-X1),Activity,MOLM-13 [1],Active
same,Activity,MOLM-13 [2],Active
same,Activity,MOLM-13 [3],Active
same,inhibition,MOLM-13 [4],Active
same,inhibition,MOLM-13 [5],Active
same,Activity,[6],Active
same,Activity,MOLM-13 [7],Active
same,Activity,MOLM-13 [8],Active
same,Activity,MOLM-13 [9],Active
same,inhibition,MOLM-13 [10],Active
same,Activity,MOLM-13 [11],Active
same,inhibition,MOLM-13 [12],Active
same,IC50,MOLM-13 [13],382 nM
same,Activity,MOLM-13 [14],Active
same,inhibition,MOLM-13 [15],Active
same,Activity,MOLM-13 [16],Active
same,Activity,MOLM-13 [17],Active
same,inhibition,MOLM-13 [18],Active
same,Activity,MOLM-13 [19],Tde
same,Activity,MOLM-13 [20],Active
same,IC50,K562,59000 nM
same,Activity,MOLM-13 [21],Active
same,inhibition,MOLM-13 [22],Active
same,Activity,MOLM-13 [23],Active
same,Activity,MOLM-13 [24],Active
same,Activity,MOLM-13 [25],Active
same,inhibition,MOLM-13 [26],Active
same,IC50,MOLM-13 [27],70 nM
same,Activity,MOLM-13 [28],Active
same,Activity,MOLM-13 [29],Active
same,Activity,MOLM-13 [30],Active
same,Activity,MOLM-13 [31],Active
same,Activity,[32],Dde
same,IC50,MV4-11,220 nM
same,Activity,MOLM-13 [33],Active
same,IC50,RS4-11,240 nM
same,Activity,MOLM-13 [34],Active
